{"source": "paper PMC10693528", "about": "“A high-throughput metabolomics in vitro platform for the characterization of hepatotoxicity” (Cell Biology and Toxicology, 2023)", "tested_on": "HepG2 cells", "test": "LC-MS/MS targeted intracellular metabolomics", "format": "cell-based, human", "conditions": "Suppl Fig 10, C3 (C2 for Aroclor), 48 h", "outline": "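Metabolites extracted in-plate from HepG2 cells with 80% isopropanol and analysed by RP and HILIC LC-MS/MS in positive and negative mode. Data normalised to lyophilised untreated HepG2 reference samples and to each sample's median across 221 metabolites. Treated versus control compared by Welch t test on log-transformed data.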"}
{"molecule": "CCC(CC)Nc1c([N+](=O)[O-])cc(C)c(C)c1[N+](=O)[O-]", "note": "[Pendimethalin]", "values": [{"measurement": "Carnitine level vs controls", "value": 0.76}, {"measurement": "Ceramide (d16:1.C24:0) level vs controls", "value": 1.35}, {"measurement": "Ceramide (d17:1.C24:0) level vs controls", "value": 1.40}, {"measurement": "Ceramide (d18:1.C20:0) level vs controls", "value": 0.81}, {"measurement": "Ceramide (d18:1.C22:1) level vs controls", "value": 0.43}, {"measurement": "Ceramide (d18:1.C24:1) level vs controls", "value": 0.54}, {"measurement": "Ceramide (d18:2.C16:0) level vs controls", "value": 2.06}, {"measurement": "Ceramide (d18:2.C23:0) level vs controls", "value": 1.14}, {"measurement": "Ceramide (d18:2.C24:0) level vs controls", "value": 1.87}, {"measurement": "Ceramide (d18:2.C24:1) level vs controls", "value": 1.17}, {"measurement": "Choline plasmalogen (C36:4) level vs controls", "value": 0.63}, {"measurement": "Choline plasmalogen (C36:5) level vs controls", "value": 0.68}, {"measurement": "Cysteinylglycine level vs controls", "value": 1.14}, {"measurement": "Flavin adenine dinucleotide (FAD) level vs controls", "value": 1.14}, {"measurement": "Glutathione (GSH) level vs controls", "value": 1.12}, {"measurement": "Hexanoylcarnitine level vs controls", "value": 0.69}, {"measurement": "Isopentenyl pyrophosphate (IPP) level vs controls", "value": 2.79}, {"measurement": "Lysophosphatidylcholine (C14:0) level vs controls", "value": 2.28}, {"measurement": "Lysophosphatidylcholine (C16:0) level vs controls", "value": 2.37}, {"measurement": "Lysophosphatidylcholine (C20:0) level vs controls", "value": 2.37}, {"measurement": "Lysophosphatidylcholine (C20:1) level vs controls", "value": 1.47}, {"measurement": "Lysophosphatidylcholine (C20:4) level vs controls", "value": 2.32}, {"measurement": "Lysophosphatidylcholine (C22:0) level vs controls", "value": 3.44}, {"measurement": "Lysophosphatidylcholine (C24:0) level vs controls", "value": 4.49}, {"measurement": "Lysophosphatidylcholine (C24:1) level vs controls", "value": 3.59}, {"measurement": "Lysophosphatidylethanolamine (C16:0) level vs controls", "value": 1.81}, {"measurement": "Lysophosphatidylethanolamine (C18:0) level vs controls", "value": 2.07}, {"measurement": "N-Acetylglucosamine level vs controls", "value": 0.93}, {"measurement": "N-Acetylserine level vs controls", "value": 1.47}, {"measurement": "O-Acetylcarnitine level vs controls", "value": 1.02}, {"measurement": "Pantothenic acid level vs controls", "value": 0.78}, {"measurement": "Phosphatidylcholine (C32:0) level vs controls", "value": 1.93}, {"measurement": "Phosphatidylcholine (C34:0) level vs controls", "value": 1.83}, {"measurement": "Phosphatidylcholine (C34:2) level vs controls", "value": 0.64}, {"measurement": "Phosphatidylcholine (C34:3) level vs controls", "value": 0.79}, {"measurement": "Phosphatidylcholine (C36:0) level vs controls", "value": 2.49}, {"measurement": "Phosphatidylcholine (C36:1) level vs controls", "value": 0.93}, {"measurement": "Phosphatidylcholine (C36:2) level vs controls", "value": 0.52}, {"measurement": "Phosphatidylcholine (C36:3) level vs controls", "value": 0.73}, {"measurement": "Phosphatidylcholine (C36:4) level vs controls", "value": 1.10}, {"measurement": "Phosphatidylcholine (C38:6) level vs controls", "value": 1.15}, {"measurement": "Phosphatidylethanolamine (C32:0) level vs controls", "value": 3.04}, {"measurement": "Phosphatidylethanolamine (C34:0) level vs controls", "value": 2.78}, {"measurement": "Phosphatidylethanolamine (C34:1) level vs controls", "value": 1.48}, {"measurement": "Phosphatidylethanolamine (C34:2) level vs controls", "value": 0.68}, {"measurement": "Phosphatidylethanolamine (C36:0) level vs controls", "value": 3.98}, {"measurement": "Phosphatidylethanolamine (C36:1) level vs controls", "value": 1.46}, {"measurement": "Phosphatidylethanolamine (C36:3) level vs controls", "value": 0.82}, {"measurement": "Phosphatidylethanolamine (C38:5) level vs controls", "value": 0.79}, {"measurement": "Phosphatidylethanolamine (C40:7) level vs controls", "value": 0.57}, {"measurement": "Proline level vs controls", "value": 0.89}, {"measurement": "Propionylcarnitine level vs controls", "value": 0.65}, {"measurement": "Sphingomyelin (d32:1) level vs controls", "value": 0.92}, {"measurement": "Sphingomyelin (d35:1) level vs controls", "value": 1.07}, {"measurement": "Sphingomyelin (d38:2) level vs controls", "value": 0.76}, {"measurement": "Sphingomyelin (d40:2) level vs controls", "value": 0.93}, {"measurement": "Sphingomyelin (d41:2) level vs controls", "value": 0.79}, {"measurement": "Sphingomyelin (d42:2) level vs controls", "value": 0.73}, {"measurement": "Triacylglycerol (C30:0.C18:1) level vs controls", "value": 0.81}, {"measurement": "Triacylglycerol (C32:0.C16:1) level vs controls", "value": 0.66}, {"measurement": "Triacylglycerol (C32:1.C16:1) level vs controls", "value": 0.58}, {"measurement": "Triacylglycerol (C34:0.C18:1) level vs controls", "value": 0.96}, {"measurement": "Triacylglycerol (C34:1.C16:0) level vs controls", "value": 0.79}, {"measurement": "Triacylglycerol (C34:1.C18:1) level vs controls", "value": 0.71}, {"measurement": "Triacylglycerol (C34:2.C18:0) level vs controls", "value": 0.87}, {"measurement": "Triacylglycerol (C34:2.C18:1) level vs controls", "value": 0.44}, {"measurement": "Triacylglycerol (C36:1.C18:0) level vs controls", "value": 0.86}, {"measurement": "Triacylglycerol (C36:1.C18:1) level vs controls", "value": 0.65}, {"measurement": "Triacylglycerol (C36:1.C18:2) level vs controls", "value": 0.83}, {"measurement": "Triacylglycerol (C36:2.C18:1) level vs controls", "value": 0.49}, {"measurement": "Triacylglycerol (C36:3.C18:1) level vs controls", "value": 0.78}, {"measurement": "Tyrosine level vs controls", "value": 1.14}, {"measurement": "myo-Inositol-2-phosphate level vs controls", "value": 0.76}, {"measurement": "Sphingomyelin (d34:2) level vs controls", "setting": "first of two lines with this name", "value": 1.11}, {"measurement": "Sphingomyelin (d34:2) level vs controls", "setting": "second of two lines with this name", "value": 1.27}]}
